Where “and” joins values, the source holds several entries; their conditions need not be identical. Identical values can stand only once.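 Assay format: 96-well plates, 48-hour exposure. The concentration for 50% growth inhibition is given as GI50. Definition used: TGI = concentration required for complete inhibition of growth.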
What was measured:
Experiment in all cases: NCI-60 cell line screen, 48 h
CAKI-1 renal = system: CAKI-1 renal
SW-620 colon = system: SW-620 colon
SR leukemia = system: SR leukemia
MCF7 breast = system: MCF7 breast
NCI-H522 lung = system: NCI-H522 lung
SF-295 CNS = system: SF-295 CNS
HOP-62 NSCLC = system: HOP-62 NSCLC
NCI-H226 lung = system: NCI-H226 lung
A498 renal = system: A498 renal
BT-549 breast = system: BT-549 breast
RXF 393 renal = system: RXF 393 renal
UACC-257 melanoma = system: UACC-257 melanoma
MOLT-4 leukemia = system: MOLT-4 leukemia
SK-MEL-2 melanoma = system: SK-MEL-2 melanoma

SMILES | TGI (CAKI-1 renal) | TGI (SW-620 colon) | TGI (SR leukemia) | TGI (MCF7 breast) | TGI (NCI-H522 lung) | TGI (SF-295 CNS) | TGI (HOP-62 NSCLC) | TGI (NCI-H226 lung) | TGI (A498 renal) | TGI (BT-549 breast) | TGI (RXF 393 renal) | TGI (UACC-257 melanoma) | TGI (MOLT-4 leukemia) | TGI (SK-MEL-2 melanoma) | GI50 (CAKI-1 renal) | GI50 (NCI-H522 lung) | GI50 (SF-295 CNS) | GI50 (HOP-62 NSCLC) | GI50 (NCI-H226 lung) | GI50 (MOLT-4 leukemia)
Cn1c2ccccc2c2c(-c3ccccc3)cc3c(c21)C(=O)C=CC3=O | 4.07 µM | 2.21 µM | 0.817 µM | 4.35 µM | 2.74 µM | > 10 µM | > 10 µM | 5.04 µM | 6.18 µM | 3.04 µM | 3.83 µM | 4.62 µM | 1.1 µM | > 7.25 µM |  |  |  |  |  | 
CNC1=C(C)C(=O)C(=O)C([C@H](C)CCC=C(C)C)=C1O | 56.7 µM | > 100 µM | 71 µM | > 100 µM | 20.4 µM | > 75.7 µM | > 31.6 µM | > 72.9 µM | 62.3 µM | > 100 µM | > 100 µM | > 100 µM | > 48.5 µM | 81.9 µM |  |  |  |  |  | 
O=C(NC1=NCC(CN2CCN(c3ccccc3)CC2)O1)Nc1ccccc1 (stereo not given) | > 100 µM | > 100 µM | > 100 µM | > 100 µM | > 100 µM | > 100 µM | > 100 µM | > 100 µM | > 100 µM | > 100 µM | > 100 µM | > 100 µM | > 100 µM | > 100 µM |  |  |  |  |  | 
NC(N)=N/N=C/c1c(-c2ccc(Cl)cc2)nc2sccn12 | 10.9 µM | 3.04 µM | 13.2 µM | 3.48 µM | 3.19 µM | 3.13 µM | 3.56 µM | 7.49 µM | 13.2 µM | 12 µM | 2.95 µM | 3.62 µM | 5.08 µM | 4.31 µM |  |  |  |  |  | 
COC(=O)/C=C(/C)n1nc2ccccc2n1 | > 100 µM | > 100 µM | > 100 µM | > 100 µM | > 100 µM | > 100 µM | > 100 µM | > 100 µM | > 100 µM | > 100 µM | > 100 µM | > 100 µM | > 100 µM | > 100 µM |  |  |  |  |  | 
C=CCN1C(=O)/C(=C/c2ccc(OC)cc2)N=C1SC/C=C/C | > 100 µM | > 100 µM | 63.8 µM | > 100 µM | > 100 µM | > 100 µM | > 100 µM | > 100 µM | > 100 µM | > 100 µM | 87 µM | > 100 µM | 66.7 µM | > 100 µM |  |  |  |  |  | 
OC1(c2cccs2)c2cccc(Cl)c2C(O)(c2cccs2)c2c(Cl)cccc21 (stereo not given) | > 100 µM | > 100 µM | > 100 µM | > 100 µM | > 100 µM | > 100 µM | > 100 µM | > 100 µM | > 100 µM | > 100 µM | > 100 µM | > 100 µM | > 100 µM | > 100 µM |  |  |  |  |  | 
CCOP(=O)(OCC)/C(C#N)=C/c1ncc[nH]1 | > 100 µM | > 100 µM | > 100 µM | > 100 µM | > 100 µM | > 100 µM | > 100 µM | > 100 µM | > 100 µM | > 100 µM | > 100 µM | > 100 µM | > 100 µM | > 100 µM |  |  |  |  |  | 
CCCCCCCCCCCCCCCCCCNc1ccn(C2OC(COP(=O)(O)OCC3OC(n4cc(F)c(=O)[nH]c4=O)CC3O)C(O)C2O)c(=O)n1 (stereo not given) | > 100 µM | > 100 µM | 28.8 µM | > 48.6 µM | > 100 µM | > 100 µM | > 100 µM | > 100 µM | > 100 µM | > 79.7 µM | 35.6 µM | > 100 µM | 25.2 µM | > 100 µM |  |  |  |  |  | 
N#Cc1c(-c2ccccc2)cc(-c2ccccc2)n(C2OC(CO)C(O)C(O)C2O)c1=S (stereo not given) | > 100 µM | > 100 µM | > 100 µM | 78 µM and > 100 µM | 35.6 µM and > 100 µM | 44.4 µM and > 100 µM | > 100 µM | 49.1 µM and > 100 µM | 52.5 µM | 80.6 µM and > 100 µM | > 100 µM |  | 51.7 µM and 85.8 µM |  | 38.1 µM and > 100 µM | 17.1 µM and 38.9 µM | 19.5 µM and 41.1 µM | 34.3 µM and 72.8 µM | 22.3 µM and 69.8 µM | 11.3 µM and 23.5 µM
COc1ccc(-c2c(C#N)c(N)n(C3OCC(OC(C)=O)C(OC(C)=O)C3OC(C)=O)c(=S)c2C#N)cc1 (stereo not given) | > 100 µM | > 100 µM | 39.5 µM and 54.6 µM | > 100 µM | > 100 µM | > 100 µM | > 100 µM | > 100 µM | 70.1 µM and 84.2 µM | 78.7 µM and 99 µM | > 100 µM and 98.2 µM | > 100 µM | 51.1 µM and 48 µM | > 100 µM |  |  |  |  |  | 
CCc1c2c([nH]c(=S)c1C#N)CCC2 | > 100 µM | > 100 µM | > 100 µM | > 100 µM | > 100 µM | > 100 µM | > 100 µM | > 100 µM | > 100 µM | > 100 µM | > 100 µM | > 100 µM | > 100 µM | > 100 µM |  |  |  |  |  | 
Cc1csc2c(=O)n(C3OC(CO)C(O)C3O)c(=O)[nH]c12 (stereo not given) | > 100 µM | > 100 µM | > 100 µM | > 100 µM | > 100 µM | > 100 µM | > 100 µM | > 100 µM | > 100 µM | > 100 µM | > 100 µM | > 100 µM | > 100 µM |  |  |  |  |  |  | 
